Assay results from the NIST ThermoML archive (doi:10.1016/j.fluid.2008.04.021).
Numbers after ± are expanded uncertainties.

Assay: excess molar enthalpy (molar enthalpy of mixing); xn = mol fraction of the nth substance listed
Conditions: Liquid

CCCCOCC [butyl ethyl ether] + FC(F)(F)C(F)(F)C(F)(F)C(F)(F)C(F)(F)C(F)(F)F
298.15 K
Conditions | excess molar enthalpy [kcal/mol]
x2 = 0 | 0 ± 0.000478
x2 = 0.05 | 0.146 ± 0.00335
x2 = 0.1 | 0.259 ± 0.00574
x2 = 0.15 | 0.345 ± 0.00741
x2 = 0.2 | 0.41 ± 0.0086
x2 = 0.25 | 0.459 ± 0.00956
x2 = 0.3 | 0.494 ± 0.0103
x2 = 0.35 | 0.519 ± 0.0108
x2 = 0.4 | 0.536 ± 0.0112
x2 = 0.45 | 0.546 ± 0.0115
x2 = 0.5 | 0.549 ± 0.0115
x2 = 0.55 | 0.546 ± 0.0115
x2 = 0.6 | 0.535 ± 0.0112
x2 = 0.65 | 0.517 ± 0.0108
x2 = 0.7 | 0.489 ± 0.0103
x2 = 0.75 | 0.449 ± 0.00956
x2 = 0.8 | 0.396 ± 0.00837
x2 = 0.85 | 0.327 ± 0.00693
x2 = 0.9 | 0.24 ± 0.00526
x2 = 0.95 | 0.132 ± 0.00311

FC(F)(F)C(F)(F)C(F)(F)C(F)(F)C(F)(F)C(F)(F)F [perfluorohexane] + CCCOCCC
Conditions | excess molar enthalpy [kcal/mol]
298.15 K, x1 = 1 | 0 ± 0.000478

FC(F)(F)C(F)(F)C(F)(F)C(F)(F)C(F)(F)C(F)(F)F [perfluorohexane] + CCOCC
Conditions | excess molar enthalpy [kcal/mol]
293.15 K, x1 = 1 | 0 ± 0.000478

FC(F)(F)C(F)(F)C(F)(F)C(F)(F)C(F)(F)C(F)(F)F [perfluorohexane] + CCCCOCC
Conditions | excess molar enthalpy [kcal/mol]
298.15 K, x1 = 1 | 0 ± 0.000478

CCOCC [diethyl ether] + FC(F)(F)C(F)(F)C(F)(F)C(F)(F)C(F)(F)C(F)(F)F
293.15 K
Conditions | excess molar enthalpy [kcal/mol]
x2 = 0 | 0 ± 0.000478
x2 = 0.05 | 0.148 ± 0.00335
x2 = 0.1 | 0.26 ± 0.00574
x2 = 0.15 | 0.344 ± 0.00741
x2 = 0.2 | 0.408 ± 0.0086
x2 = 0.25 | 0.455 ± 0.00956
x2 = 0.3 | 0.491 ± 0.0103
x2 = 0.35 | 0.517 ± 0.0108
x2 = 0.4 | 0.535 ± 0.0112
x2 = 0.45 | 0.547 ± 0.0115
x2 = 0.5 | 0.551 ± 0.0115
x2 = 0.55 | 0.546 ± 0.0115
x2 = 0.6 | 0.533 ± 0.0112
x2 = 0.65 | 0.51 ± 0.0108
x2 = 0.7 | 0.475 ± 0.01
x2 = 0.75 | 0.427 ± 0.00908
x2 = 0.8 | 0.366 ± 0.00789
x2 = 0.85 | 0.292 ± 0.00621
x2 = 0.9 | 0.205 ± 0.00454
x2 = 0.95 | 0.107 ± 0.00263

CCCOCCC [dipropyl ether] + FC(F)(F)C(F)(F)C(F)(F)C(F)(F)C(F)(F)C(F)(F)F
298.15 K
Conditions | excess molar enthalpy [kcal/mol]
x2 = 0 | 0 ± 0.000478
x2 = 0.05 | 0.137 ± 0.00311
x2 = 0.1 | 0.249 ± 0.0055
x2 = 0.15 | 0.34 ± 0.00717
x2 = 0.2 | 0.413 ± 0.00884
x2 = 0.25 | 0.47 ± 0.0098
x2 = 0.3 | 0.514 ± 0.0108
x2 = 0.35 | 0.547 ± 0.0115
x2 = 0.4 | 0.569 ± 0.012
x2 = 0.45 | 0.582 ± 0.0122
x2 = 0.5 | 0.586 ± 0.0122
x2 = 0.55 | 0.582 ± 0.0122
x2 = 0.6 | 0.569 ± 0.012
x2 = 0.65 | 0.546 ± 0.0115
x2 = 0.7 | 0.514 ± 0.0108
x2 = 0.75 | 0.469 ± 0.0098
x2 = 0.8 | 0.411 ± 0.0086
x2 = 0.85 | 0.338 ± 0.00717
x2 = 0.9 | 0.247 ± 0.0055
x2 = 0.95 | 0.135 ± 0.00311

FC(F)(F)C(F)(F)C(F)(F)C(F)(F)C(F)(F)C(F)(F)F [perfluorohexane] + CCCCOC
Conditions | excess molar enthalpy [kcal/mol]
298.15 K, x1 = 1 | 0 ± 0.000478

FC(F)(F)C(F)(F)C(F)(F)C(F)(F)C(F)(F)C(F)(F)F [perfluorohexane] + CCCCOCCCC
298.15 K
Conditions | excess molar enthalpy [kcal/mol]
x1 = 0.05 | 0.144 ± 0.00335
x1 = 0.1 | 0.255 ± 0.0055
x1 = 0.15 | 0.338 ± 0.00717
x1 = 0.2 | 0.399 ± 0.00837
x1 = 0.25 | 0.443 ± 0.00932
x1 = 0.3 | 0.473 ± 0.01
x1 = 0.35 | 0.494 ± 0.0103
x1 = 0.4 | 0.506 ± 0.0105
x1 = 0.45 | 0.513 ± 0.0108
x1 = 0.5 | 0.515 ± 0.0108
x1 = 0.55 | 0.513 ± 0.0108
x1 = 0.6 | 0.506 ± 0.0105
x1 = 0.65 | 0.494 ± 0.0103
x1 = 0.7 | 0.474 ± 0.01
x1 = 0.75 | 0.444 ± 0.00932
x1 = 0.8 | 0.401 ± 0.0086
x1 = 0.85 | 0.34 ± 0.00717
x1 = 0.9 | 0.257 ± 0.0055
x1 = 0.95 | 0.146 ± 0.00335
x1 = 1 | 0 ± 0.000478

CCCCOC [butyl methyl ether] + FC(F)(F)C(F)(F)C(F)(F)C(F)(F)C(F)(F)C(F)(F)F
298.15 K
Conditions | excess molar enthalpy [kcal/mol]
x2 = 0 | 0 ± 0.000478
x2 = 0.05 | 0.148 ± 0.00335
x2 = 0.1 | 0.26 ± 0.00574
x2 = 0.15 | 0.344 ± 0.00741
x2 = 0.2 | 0.406 ± 0.0086
x2 = 0.25 | 0.452 ± 0.00956
x2 = 0.3 | 0.486 ± 0.0103
x2 = 0.35 | 0.51 ± 0.0108
x2 = 0.4 | 0.526 ± 0.011
x2 = 0.45 | 0.535 ± 0.0112
x2 = 0.5 | 0.539 ± 0.0112
x2 = 0.55 | 0.535 ± 0.0112
x2 = 0.6 | 0.524 ± 0.011
x2 = 0.65 | 0.505 ± 0.0105
x2 = 0.7 | 0.475 ± 0.01
x2 = 0.75 | 0.434 ± 0.00908
x2 = 0.8 | 0.379 ± 0.00813
x2 = 0.85 | 0.31 ± 0.00669
x2 = 0.9 | 0.224 ± 0.00502
x2 = 0.95 | 0.121 ± 0.00287
